What was measured:
Rattus norvegicus [1] = test: Antiinflammatory activity against carrageenan-induced hind paw edema in rat at 100 mg/kg; assay type: functional
Rattus norvegicus [2] = test: Diuretic activity in rat at 125 mg/kg; assay type: functional, Urine

COc1c2ccoc2c(OC)c2oc(=O)ccc12 [ISOPIMPINELLIN]
Activity (Rattus norvegicus [1]): 30.4% | Activity (Rattus norvegicus [2]): 84%

CCCCCCCCCCCCCCCCCCCCCCCCCCCCCCC [HENTRIACONTANE]
Activity (Rattus norvegicus [1]): 30.4% | Activity (Rattus norvegicus [2]): 84%
